Data: US20250026796A1 (priority 2022, published 2025)

Target: SARS-CoV-2 E (2E) (Severe acute respiratory syndrome coronavirus 2, UniProt P0DTC4)
Format: cell-based

SARS-CoV-2 E (2E), sequence (P0DTC4 whole entry, looked up): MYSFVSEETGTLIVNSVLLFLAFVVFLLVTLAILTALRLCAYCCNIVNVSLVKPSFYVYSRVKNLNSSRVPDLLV

MYSFVSEETGTLIVNSVL [MY18]
Relative fluorescent intensity of DND-189 dye (proton homeostasis): significantly restores the proton homeostasis
